{"source": "ChEMBL document CHEMBL1201862", "about": "“PubChem BioAssay data set” (2004)", "key": {"[1]": {"target": "T1, DNA repair protein RAD52 homolog (Homo sapiens, UniProt P43351)", "T1 sequence (P43351 whole entry)": "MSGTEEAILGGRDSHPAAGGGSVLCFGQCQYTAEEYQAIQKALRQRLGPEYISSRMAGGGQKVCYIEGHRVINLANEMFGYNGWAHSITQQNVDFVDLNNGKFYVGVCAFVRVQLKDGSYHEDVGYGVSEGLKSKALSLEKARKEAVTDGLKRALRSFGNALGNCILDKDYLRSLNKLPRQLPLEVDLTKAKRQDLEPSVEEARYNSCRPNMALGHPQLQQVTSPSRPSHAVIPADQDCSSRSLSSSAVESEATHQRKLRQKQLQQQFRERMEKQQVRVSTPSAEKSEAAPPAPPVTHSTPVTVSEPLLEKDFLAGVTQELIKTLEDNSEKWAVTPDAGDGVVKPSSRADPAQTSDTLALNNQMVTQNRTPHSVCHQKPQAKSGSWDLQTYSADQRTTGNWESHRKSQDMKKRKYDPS", "assay_type": "functional, biochemical"}, "[2]": {"test": "HIV-1 AD8 envelope cell-cell fusion blockers – cherry-pick, dose response (AID 652062);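 also: luciferase signal from cell-cell fusion driven by HIV-1 clade B AD8 Env; potency is for inhibitors of fusion seen as a drop in luminescence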", "assay_type": "functional, cell-based"}, "[3]": {"test": "intracellular Trypanosoma cruzi inhibitors in host cells – cell-based, plate reader, cherry-pick samples, set 3, dose response (AID 651818);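 also: compounds incubated with infected cells for about four days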", "assay_type": "functional"}, "[4]": {"test": "toxicity toward HepG2 liver cells – cell-based, plate reader, cherry-pick, antagonist series, cytotoxicity control, dose response (AID 743416)", "assay_type": "functional"}, "[5]": {"test": "blockers of bursicon-stimulated LGR2 cAMP reporter – cell-based, HEK293, CRE-luciferase reporter, cherry pick, set 2, dose response (AID 743343);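 also: transfected cells were stimulated with diluted bursicon conditioned medium after compound addition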", "assay_type": "functional"}, "[6]": {"test": "A549 cell cytotoxicity, dose response, cytotoxicity control, plate reader, cherry-pick, antagonist series (AID 743412)", "assay_type": "functional, cell-based"}, "[7]": {"test": "blockade of melanocortin 4 receptor signaling – cell-based, plate reader, cherry pick, counter-screen for LGR2 antagonist project, dose response (AID 743444);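 also: transfected HEK 293 cells stimulated with alpha-MSH peptide; potency of inhibitors of the alpha-MSH evoked signal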", "assay_type": "functional"}, "[8]": {"system": "Streptococcus", "test": "GAS UMAA2166 growth inhibition – luminescence, BacTiterGlo, counter-screen for streptokinase expression inhibitor project, dose response (AID 1915);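 also: potency for reduction of bacterial viability or growth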", "assay_type": "functional, organism-based"}, "[9]": {"target": "T2, Histone-lysine N-methyltransferase NSD2 (Homo sapiens, UniProt O96028)", "T2 sequence (O96028 whole entry)": "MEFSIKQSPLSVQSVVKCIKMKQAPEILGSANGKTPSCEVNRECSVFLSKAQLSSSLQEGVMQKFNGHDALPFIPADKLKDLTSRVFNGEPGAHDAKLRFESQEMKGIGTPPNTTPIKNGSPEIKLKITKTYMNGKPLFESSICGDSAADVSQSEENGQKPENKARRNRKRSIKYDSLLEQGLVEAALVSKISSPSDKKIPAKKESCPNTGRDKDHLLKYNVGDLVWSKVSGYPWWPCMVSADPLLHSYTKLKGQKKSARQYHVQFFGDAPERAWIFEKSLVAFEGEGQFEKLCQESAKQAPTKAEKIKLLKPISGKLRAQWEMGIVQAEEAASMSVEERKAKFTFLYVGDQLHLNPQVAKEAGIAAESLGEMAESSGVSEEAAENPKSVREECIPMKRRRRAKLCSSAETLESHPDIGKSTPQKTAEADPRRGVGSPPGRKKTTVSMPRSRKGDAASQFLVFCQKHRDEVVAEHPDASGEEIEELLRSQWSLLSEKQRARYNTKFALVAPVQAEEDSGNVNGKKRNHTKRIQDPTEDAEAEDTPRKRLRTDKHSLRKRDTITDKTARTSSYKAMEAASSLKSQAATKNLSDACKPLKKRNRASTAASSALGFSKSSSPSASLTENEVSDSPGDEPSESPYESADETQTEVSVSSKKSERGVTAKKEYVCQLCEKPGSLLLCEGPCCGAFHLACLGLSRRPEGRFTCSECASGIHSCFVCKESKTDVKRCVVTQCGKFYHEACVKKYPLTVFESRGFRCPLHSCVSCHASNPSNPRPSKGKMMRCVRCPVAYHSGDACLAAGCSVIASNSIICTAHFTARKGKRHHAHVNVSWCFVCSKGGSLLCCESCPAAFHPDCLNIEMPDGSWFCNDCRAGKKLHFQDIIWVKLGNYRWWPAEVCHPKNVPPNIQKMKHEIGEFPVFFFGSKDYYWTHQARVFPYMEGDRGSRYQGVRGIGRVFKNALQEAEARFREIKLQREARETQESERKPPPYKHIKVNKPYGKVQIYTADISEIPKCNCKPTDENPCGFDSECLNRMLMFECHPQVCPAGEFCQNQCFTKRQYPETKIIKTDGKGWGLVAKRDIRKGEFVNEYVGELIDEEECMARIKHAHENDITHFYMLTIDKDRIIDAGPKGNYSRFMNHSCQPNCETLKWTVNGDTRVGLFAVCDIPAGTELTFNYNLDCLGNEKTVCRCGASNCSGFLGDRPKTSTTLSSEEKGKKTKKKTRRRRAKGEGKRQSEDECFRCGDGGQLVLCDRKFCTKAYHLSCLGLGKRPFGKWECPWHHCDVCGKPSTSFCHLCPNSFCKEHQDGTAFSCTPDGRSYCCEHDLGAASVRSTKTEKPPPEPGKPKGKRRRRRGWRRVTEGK", "assay_type": "biochemical"}, "[10]": {"system": "Streptococcus sp. 'group A'", "test": "Streptococcus pyogenes SK(-)GAS viability under kanamycin – luminescence, BacTiterGlo, confirmation, counter-screen for streptokinase expression inhibitor project, dose response (AID 1900)", "assay_type": "functional, organism-based"}, "[11]": {"target": "T3, Streptokinase A (Streptococcus pyogenes serotype M1, UniProt P10520)", "T3 sequence (P10520 whole entry)": "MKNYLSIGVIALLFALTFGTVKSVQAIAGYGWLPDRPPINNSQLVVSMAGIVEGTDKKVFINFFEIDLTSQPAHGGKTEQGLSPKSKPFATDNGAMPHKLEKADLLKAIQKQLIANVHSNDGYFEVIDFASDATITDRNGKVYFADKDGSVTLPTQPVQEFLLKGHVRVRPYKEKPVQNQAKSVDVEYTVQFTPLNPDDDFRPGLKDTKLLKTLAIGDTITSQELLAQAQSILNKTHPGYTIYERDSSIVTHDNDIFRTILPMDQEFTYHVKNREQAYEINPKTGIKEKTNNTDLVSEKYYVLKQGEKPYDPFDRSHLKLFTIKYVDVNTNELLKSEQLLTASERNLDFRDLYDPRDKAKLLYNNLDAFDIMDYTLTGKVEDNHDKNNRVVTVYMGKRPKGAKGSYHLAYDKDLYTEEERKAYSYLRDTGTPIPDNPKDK", "test": "viability-normalized secreted streptokinase activity reduction – plasminogen activation absorbance, OD405, dose response (AID 1914);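 also: secreted streptokinase activity via plasminogen activation per viability signal from cell pellet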", "assay_type": "functional, Streptococcus pyogenes M1 GAS"}, "[12]": {"target": "Prothrombin (Homo sapiens, UniProt P00734)", "test": "Thrombin 1536 HTS Dose Response Confirmation. [Related pubchem assays: 1046 (Thrombin 1536 HTS; hits were confirmed in this assay)]", "assay_type": "functional"}}, "note": "Active and inactive are the calls of the source.", "data": [{"compound": "CN(C)CCCNC(=O)C(=O)Nc1cc2c3c(c1)CC(=O)N3CCC2", "values": [{"measurement": "AC50", "setting": "[1]", "result": "15.4 µM (active)"}]}, {"compound": "O=C(COC(=O)c1ncc(Cl)c(Cl)c1Cl)NCc1cccs1", "values": [{"measurement": "AC50", "setting": "[2]", "result": "1.12 µM (active)"}]}, {"compound": "COc1ccc(CN(C)C[C@H]2Oc3c(NC(=O)Nc4ccc(C(F)(F)F)cc4)cccc3C(=O)N([C@H](C)CO)C[C@@H]2C)cc1", "values": [{"measurement": "AC50", "setting": "[3]", "result": "3.26 µM (active)"}]}, {"compound": "C[C@@H]1CN([C@@H](C)CO)C(=O)c2cccc(NC(=O)c3ccc(-c4nccs4)cc3)c2O[C@@H]1CN(C)Cc1ccc(C(=O)Nc2ccccc2N)cc1", "values": [{"measurement": "AC50", "setting": "[3]", "result": "1.61 µM (active)"}]}, {"compound": "C[C@H](CO)N1C[C@H](C)[C@@H](CN(C)S(=O)(=O)c2ccc(Cl)cc2)Oc2c(cccc2N(C)C)C1=O", "values": [{"measurement": "AC50", "setting": "[3]", "result": "10.1 µM (active)"}]}, {"compound": "COc1ccc(S(=O)(=O)N(C)C[C@@H]2OCc3cnnn3CCCC(=O)N([C@@H](C)CO)C[C@H]2C)cc1", "values": [{"measurement": "AC50", "setting": "[4]", "result": "> 52 µM (inactive)"}, {"measurement": "AC50", "setting": "[5]", "result": "2.36 µM (active)"}, {"measurement": "AC50", "setting": "[6]", "result": "> 52 µM (inactive)"}, {"measurement": "AC50", "setting": "[7]", "result": "1.75 µM (active)"}]}, {"compound": "CCOC(=O)C1=C(C)N=c2s/c(=C\\c3ccc(O)c([N+](=O)[O-])c3)c(=O)n2C1c1ccccc1OC", "note": "(stereo not given)", "values": [{"measurement": "EC50", "setting": "[8]", "result": "31.3 µM (active)"}, {"measurement": "AC50", "setting": "[9]", "result": "> 20 µM (inactive)"}, {"measurement": "EC50", "setting": "[10]", "result": "7.08 µM (active)"}, {"measurement": "EC50", "setting": "[11]", "result": "20.4 µM (active)"}]}, {"compound": "O=C(O)c1ccc(/C=N/NC(=O)c2ccc(F)cc2)cc1", "values": [{"measurement": "IC50", "setting": "[12]", "result": "> 50 µM (not active)"}]}, {"compound": "C/C(=N\\Nc1ccc(Cl)c(C(=O)O)c1)c1cccc([N+](=O)[O-])c1", "values": [{"measurement": "IC50", "setting": "[12]", "result": "> 50 µM (not active)"}]}]}
